According to PubChem BioAssay (NCI):
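48-hour exposure; five concentrations; linearly interpolated endpoints. Definition used: TGI = concentration required for complete inhibition of growth.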

Columns and labels:
Experiment in all cases: inhibition of tumour cell growth, NCI panel, 48 h
[1] = tested on: TK-10 renal
[2] = tested on: MDA-MB-231 breast
[3] = tested on: SNB-78 CNS
[4] = tested on: DLD-1 colon
[5] = tested on: KM20L2 colon
[6] = tested on: M19-MEL melanoma
[7] = tested on: LXFL 529 NSCLC
[8] = tested on: HOP-18 NSCLC
[9] = tested on: DMS 273 small cell lung
[10] = tested on: DMS 114 small cell lung

Row | SMILES | TGI [1] [µM] | TGI [2] [µM] | further results
1 | CCN(CC)C(=S)N/N=C/c1cc(OC)ccc1O | > 100 | > 100 | 
2 | CCOC(=O)c1cn(CC)c2ccc3ccsc3c2c1=O | > 100 | > 100 | 
3 | Cc1cccc(N=C/C=C(\Cl)c2ccc3ccccc3c2)c1 | 50.8 | 33.6 | 
4 | O=C(CCc1ccc(O)c(O)c1)NCCc1cc(O)c(O)c(O)c1 | > 100 | 28.5 | 
5 | COc1ccc(-n2c(Cn3nnc(-c4cccnc4)n3)nn(C3OC(COC(=O)c4ccccc4)C(OC(=O)c4ccccc4)C3OC(=O)c3ccccc3)c2=S)cc1 (centres undefined) | > 100 | > 100 | 
6 | O=C1NC(=O)C2C1C1C=C3c4ccccc4N(c4ccccc4)C32[C@H]2C(=O)NC(=O)[C@@H]12 (some centres undefined) | > 100 |  | TGI [3]: > 100 µM; TGI [4]: > 100 µM; TGI [5]: > 100 µM; TGI [6]: > 100 µM; TGI [7]: > 100 µM; TGI [8]: > 100 µM; TGI [9]: > 100 µM; TGI [10]: > 100 µM
7 | Cc1c(-c2nc(N)c(C#N)c(N)c2C#N)c(=O)oc2ccccc12 | > 100 | > 100 | 
8 | Cc1cnc2c(c1)C(=O)N(c1ccc([N+](=O)[O-])cc1)S2(=O)=O | > 100 | > 100 | 
9 | COc1ccc2c(c1)-c1nc(=O)n(CCCN(C)C)c3ccc([N+](=O)[O-])c(c13)N2 | 7.17 | 2.09 | 
10 | O=C(O)C1=CN(c2ccncc2)C(c2ccco2)=CC1c1ccccc1[N+](=O)[O-] (centres undefined) | 15.9 | 30.6 | 
11 | CCCCCC#COC1CC(C)CC[C@@H]1C(C)C (some centres undefined) | > 100 |  | TGI [3]: > 100 µM; TGI [4]: > 100 µM; TGI [5]: > 100 µM; TGI [6]: > 100 µM; TGI [7]: > 100 µM; TGI [8]: > 100 µM; TGI [9]: > 100 µM
12 | COc1cc2cc3c4cc(OC)c(OC)cc4cc[n+]3c(C)c2cc1OC | > 100 | > 100 | 
13 | CCC(c1ccc(OC)cc1)C1NC(=S)NC1=O (centres undefined) | > 50 | > 50 | 
14 | c1ccc2cc(CNCCCCNCCCNCc3ccc4ccccc4c3)ccc2c1 | 3.39 | 3.95 | 
15 | O=C1CCN2C(=N1)Sc1ccccc12 | > 100 | > 100 | 
16 | COC(=O)c1ccc(C)cc1C1CN=NC12Cc1cc(C)ccc1C2=O (centres undefined) | 71.7 | 64.9 | 
17 | C/C(=C\CNc1ncnc2c1ncn2CCC(=O)OC(C)(C)C)CO | > 100 | > 100 | 
18 | CCCCCCCCCCCCCCCC(=O)Nc1ccn(C2CCC(COP(=O)(O)OCC3OC(n4cc(F)c(=O)[nH]c4=O)CC3OC(C)=O)O2)c(=O)n1 (centres undefined) | > 76.7 | > 61.6 | 
19 | O=C(NCCc1ccccc1)c1cc(/C=C/c2cc(O)ccc2O)ccc1O | 7.16 | 12.9 | 
20 | C=C1CC(C)(COc2cc(=O)oc3ccccc23)OC1=O (centres undefined) | 5.16 | 23.1 | 
21 | CCCCCCCc1cscc1-c1cscc1Br | > 100 | > 100 | 
22 | O=C(CCN1CCC(CCO)CC1)Nc1ccc2c(c1)C(=O)c1ccc(NC(=O)CCN3CCC(CCO)CC3)cc1C2=O | > 100 |  | TGI [3]: 21.6 µM; TGI [4]: 22.2 µM; TGI [5]: 77.8 µM; TGI [6]: > 100 µM; TGI [7]: 19.8 µM; TGI [8]: 80.1 µM; TGI [9]: 19.8 µM; TGI [10]: 21.7 µM
23 | Nc1nc(Br)nc2ncn(C3CC(O)C(CO)O3)c12 (centres undefined) | > 100 | > 100 | 
24 | Cc1[nH]c2nc3c(ncn3COCCO)c(=O)n2c1C(c1ccccc1)(c1ccccc1)c1ccccc1 | 30.8 | 28.3 | 
25 | Cc1cc(C)c(S(=O)(=O)N(CCCN)OCCON(CCCN)S(=O)(=O)c2c(C)cc(C)cc2C)c(C)c1 | 42.8 | > 23.4 | 
26 | CN1C(C)(C)CC(=O)C(Br)C1(C)C (centres undefined) | > 100 |  | 
27 | N#CCC1C2CC3C(C2=O)C13 (centres undefined) | > 100 | > 100 | 
28 | CC1(C)SCc2nc3ccccc3n21 | > 100 | > 100 | 
29 | CCc1ccc(Nc2cc(=O)n(C)c(SCc3ccccc3)n2)cc1 | > 100 | > 100 | 
30 | CC(CNC(=O)c1ccccc1)(CNC(=O)c1ccccc1)[N+](=O)[O-] | > 100 | > 100 | 
